Structures can show the parent of a compound that is named as a salt.
Biological target: ROCK2 (Homo sapiens, UniProt O75116)
Experiment: ROCK2 kinase inhibition assay (LABCHIP 3000 Reader, FITC peptide substrate);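 note: rho kinase reaction read by separating phosphorylated from unphosphorylated peptide on chip, with inhibition of kinase activity computed per concentration across a dose-response series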

Sequence of ROCK2 (O75116 whole entry, species assumed): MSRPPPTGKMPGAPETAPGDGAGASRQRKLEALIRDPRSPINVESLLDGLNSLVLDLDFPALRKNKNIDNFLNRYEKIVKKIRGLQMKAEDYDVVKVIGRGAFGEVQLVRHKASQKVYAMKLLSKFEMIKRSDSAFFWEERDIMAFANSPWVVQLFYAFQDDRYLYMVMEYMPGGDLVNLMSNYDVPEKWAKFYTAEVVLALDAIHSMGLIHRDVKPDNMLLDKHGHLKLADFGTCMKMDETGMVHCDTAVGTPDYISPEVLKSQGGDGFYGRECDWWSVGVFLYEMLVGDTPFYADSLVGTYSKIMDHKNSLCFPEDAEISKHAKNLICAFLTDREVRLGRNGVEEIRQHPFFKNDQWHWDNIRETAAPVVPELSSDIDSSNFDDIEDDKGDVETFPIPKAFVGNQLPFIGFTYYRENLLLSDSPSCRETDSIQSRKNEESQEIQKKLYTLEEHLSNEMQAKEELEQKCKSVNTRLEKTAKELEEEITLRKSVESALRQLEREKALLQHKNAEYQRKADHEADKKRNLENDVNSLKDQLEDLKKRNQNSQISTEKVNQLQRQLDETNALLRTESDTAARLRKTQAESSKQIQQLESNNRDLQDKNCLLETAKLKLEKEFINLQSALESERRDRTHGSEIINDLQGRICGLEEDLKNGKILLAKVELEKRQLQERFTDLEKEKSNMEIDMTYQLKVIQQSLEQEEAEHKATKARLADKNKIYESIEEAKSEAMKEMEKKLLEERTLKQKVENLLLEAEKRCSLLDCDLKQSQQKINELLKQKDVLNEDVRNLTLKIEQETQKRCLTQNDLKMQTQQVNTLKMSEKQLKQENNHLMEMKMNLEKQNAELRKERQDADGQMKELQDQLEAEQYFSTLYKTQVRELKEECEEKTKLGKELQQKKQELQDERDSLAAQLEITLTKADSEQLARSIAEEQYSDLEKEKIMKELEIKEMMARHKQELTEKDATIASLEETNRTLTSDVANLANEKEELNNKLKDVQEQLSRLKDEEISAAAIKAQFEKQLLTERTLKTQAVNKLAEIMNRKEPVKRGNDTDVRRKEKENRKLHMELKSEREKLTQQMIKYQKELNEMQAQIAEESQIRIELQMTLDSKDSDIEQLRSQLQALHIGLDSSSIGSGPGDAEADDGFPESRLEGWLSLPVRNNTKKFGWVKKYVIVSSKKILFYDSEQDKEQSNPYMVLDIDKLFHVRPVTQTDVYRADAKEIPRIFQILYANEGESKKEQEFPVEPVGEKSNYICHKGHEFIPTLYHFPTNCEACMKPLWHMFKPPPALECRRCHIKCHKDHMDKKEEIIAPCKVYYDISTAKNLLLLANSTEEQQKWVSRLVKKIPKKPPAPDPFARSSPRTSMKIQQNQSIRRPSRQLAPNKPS

Structure (SMILES)	IC50
Cc1nn(-c2cccc(-c3ccc(C(N)=O)c(OC4CC5(CC(NC(=O)c6cnn7cc(OCC(C)(C)O)ccc67)C5)C4)c3)c2)c(N)c1C#N (centres unmarked) [Example 246, N-(6-((3′-(5-amino-4-cyano-3-methyl-1H-pyrazol-1-yl)-4-carbamoyl-[1,1′-biphenyl]-3-yl)oxy)spiro[3.3]heptan-2-yl)-6-(2-hydroxy-2-methylpropoxy)pyrazolo[1,5-a]pyridine-3-carboxamide]	5 to 50 nM
CC(C)(O)COc1ccc2c(C(=O)NC3CC4(C3)CC(Oc3cc(-c5cccc(COC(=O)NCCC(=O)O)c5)ccc3C(N)=O)C4)cnn2c1 (centres unmarked) [Example 249, 3-((((4′-carbamoyl-3′-((6-(6-(2-hydroxy-2-methylpropoxy)pyrazolo[1,5-a]pyridine-3-carboxamido)spiro[3.3]heptan-2-yl)oxy)-[1,1′-biphenyl]-3-yl)methoxy)carbonyl)amino)propanoic acid]	< 5 nM
CC(C)(O)COc1ccc2c(C(=O)NC3CC4(C3)CC(Oc3cc(-c5cccc(COC(=O)NCCC(=O)OC(C)(C)C)c5)ccc3C(N)=O)C4)cnn2c1 (centres unmarked) [Example 250, tert-butyl 3-((((4′-carbamoyl-3′-((6-(6-(2-hydroxy-2-methylpropoxy)pyrazolo[1,5-a]pyridine-3-carboxamido)spiro[3.3]heptan-2-yl)oxy)-[1,1′-biphenyl]-3-yl)methoxy)carbonyl)amino)propanoate]	50 to 250 nM
CCCNC(=O)c1cc(F)cc(-c2ccc(C(N)=O)c(OC3CC4(CC(NC(=O)c5cnn6cc(OCC(C)(C)O)ccc56)C4)C3)c2)c1 (centres unmarked) [Example 251, 5-fluoro-3′-((6-(6-(2-hydroxy-2-methylpropoxy)pyrazolo[1,5-a]pyridine-3-carboxamido)spiro[3.3]heptan-2-yl)oxy)-N3-propyl-[1,1′-biphenyl]-3,4′-dicarboxamide]	5 to 50 nM
CC(C)(O)COc1ccc2c(C(=O)NC3CC4(C3)CC(Oc3cc(-c5cc(F)cc(C#N)c5)ccc3C(N)=O)C4)cnn2c1 (centres unmarked) [Example 253, N-(6-((4-carbamoyl-3′-cyano-5′-fluoro-[1,1′-biphenyl]-3-yl)oxy)spiro[3.3]heptan-2-yl)-6-(2-hydroxy-2-methylpropoxy)pyrazolo[1,5-a]pyridine-3-carboxamide]	5 to 50 nM
CC(C)(O)COc1ccc2c(C(=O)NC3CC4(C3)CC(Oc3cc(-c5cc(C#N)cc([N+](=O)[O-])c5)ccc3C(N)=O)C4)cnn2c1 (centres unmarked) [Example 254, N-(6-((4-carbamoyl-3′-cyano-5′-nitro-[1,1′-biphenyl]-3-yl)oxy)spiro[3.3]heptan-2-yl)-6-(2-hydroxy-2-methylpropoxy)pyrazolo[1,5-a]pyridine-3-carboxamide]	5 to 50 nM
CC(C)(O)COc1ccc2c(C(=O)NC3CC4(C3)CC(Oc3cc(-c5cc(C(=O)O)cc(C(=O)O)c5)ccc3C(N)=O)C4)cnn2c1 (centres unmarked) [Example 255, 4′-carbamoyl-3′-((6-(6-(2-hydroxy-2-methylpropoxy)pyrazolo[1,5-a]pyridine-3-carboxamido)spiro[3.3]heptan-2-yl)oxy)-[1,1′-biphenyl]-3,5-dicarboxylic acid]	5 to 50 nM
CC(C)(O)COc1ccc2c(C(=O)NC3CC4(C3)CC(Oc3cc(-c5cc(CO)cc(CO)c5)ccc3C(N)=O)C4)cnn2c1 (centres unmarked) [Example 258, N-(6-((4-carbamoyl-3′,5′-bis(hydroxymethyl)-[1,1′-biphenyl]-3-yl)oxy)spiro[3.3]heptan-2-yl)-6-(2-hydroxy-2-methylpropoxy)pyrazolo[1,5-a]pyridine-3-carboxamide]	< 5 nM
CC(C)(O)COc1ccc2c(C(=O)NC3CC4(C3)CC(Oc3cc(O)ccc3C(N)=O)C4)cnn2c1 (centres unmarked) [Example 259, N-(6-(2-carbamoyl-5-hydroxyphenoxy)spiro[3.3]heptan-2-yl)-6-(2-hydroxy-2-methylpropoxy)pyrazolo[1,5-a]pyridine-3-carboxamide]	5 to 50 nM
CC(C)(O)COc1ccc2c(C(=O)NC3CC4(C3)CC(Oc3cc(N5CC(N)C5)ccc3C(N)=O)C4)cnn2c1 (centres unmarked) [Example 260, N-(6-(5-(3-aminoazetidin-1-yl)-2-carbamoylphenoxy)spiro[3.3]heptan-2-yl)-6-(2-hydroxy-2-methylpropoxy)pyrazolo[1,5-a]pyridine-3-carboxamide, TFA]	5 to 50 nM
CN(C)CCCc1ccc(C(N)=O)c(OC2CC3(CC(NC(=O)c4cnn5cc(OCC(C)(C)O)ccc45)C3)C2)c1 (centres unmarked) [Example 262, N-(6-(2-carbamoyl-5-(3-(dimethylamino)propyl)phenoxy)spiro[3.3]heptan-2-yl)-6-(2-hydroxy-2-methylpropoxy)pyrazolo[1,5-a]pyridine-3-carboxamide]	5 to 50 nM
CN(C)CCCc1ccc(C(N)=O)c(OC2CC3(CC(NC(=O)c4cnn5c(C6CC6)c(OCC(C)(C)O)ccc45)C3)C2)c1 (centres unmarked) [Example 263, N-(6-(2-carbamoyl-5-(3-(dimethylamino)propyl)phenoxy)spiro[3.3]heptan-2-yl)-7-cyclopropyl-6-(2-hydroxy-2-methylpropoxy)pyrazolo[1,5-a]pyridine-3-carboxamide]	5 to 50 nM
CC(C)(O)COc1ccc2c(C(=O)NC3CC4(C3)CC(Oc3cc(CCCN5CCOCC5)ccc3C(N)=O)C4)cnn2c1 (centres unmarked) [Example 264, N-(6-(2-carbamoyl-5-(3-morpholinopropyl)phenoxy)spiro[3.3]heptan-2-yl)-6-(2-hydroxy-2-methylpropoxy)pyrazolo[1,5-a]pyridine-3-carboxamide]	50 to 250 nM
CC(C)(O)COc1ccc2c(C(=O)NC3CC4(C3)CC(Oc3cc(CCCN5CCOCC5)ccc3C(N)=O)C4)cnn2c1C1CC1 (centres unmarked) [Example 265, N-(6-(2-carbamoyl-5-(3-morpholinopropyl)phenoxy)spiro[3.3]heptan-2-yl)-7-cyclopropyl-6-(2-hydroxy-2-methylpropoxy)pyrazolo[1,5-a]pyridine-3-carboxamide]	5 to 50 nM
CN1CCN(CCCc2ccc(C(N)=O)c(OC3CC4(CC(NC(=O)c5cnn6cc(OCC(C)(C)O)ccc56)C4)C3)c2)CC1 (centres unmarked) [Example 266, N-(6-(2-carbamoyl-5-(3-(4-methylpiperazin-1-yl)propyl)phenoxy)spiro[3.3]heptan-2-yl)-6-(2-hydroxy-2-methylpropoxy)pyrazolo[1,5-a]pyridine-3-carboxamide]	50 to 250 nM
CN1CCN(CCCc2ccc(C(N)=O)c(OC3CC4(CC(NC(=O)c5cnn6c(C7CC7)c(OCC(C)(C)O)ccc56)C4)C3)c2)CC1 (centres unmarked) [Example 267, N-(6-(2-carbamoyl-5-(3-(4-methylpiperazin-1-yl)propyl)phenoxy)spiro[3.3]heptan-2-yl)-7-cyclopropyl-6-(2-hydroxy-2-methylpropoxy)pyrazolo[1,5-a]pyridine-3-carboxamide]	5 to 50 nM

Second part, the compound after the results:

IC50	Structure (SMILES)
5 to 50 nM	CC(C)(O)COc1ccc2c(C(=O)NC3CC4(C3)CC(Oc3cc(-c5cccc(F)c5)ccc3C(N)=O)C4)cnn2c1 (centres unmarked) [Example 242, N-(6-((4-carbamoyl-3′-fluoro-[1,1′-biphenyl]-3-yl)oxy)spiro[3.3]heptan-2-yl)-6-(2-hydroxy-2-methylpropoxy)pyrazolo[1,5-a]pyridine-3-carboxamide]
50 to 250 nM	CC(C)(O)COc1ccc2c(C(=O)NC3CC4(C3)CC(Oc3cc(-c5cccc(C(F)(F)F)c5)ccc3C(N)=O)C4)cnn2c1 (centres unmarked) [Example 243, N-(6-((4-carbamoyl-3′-(trifluoromethyl)-[1,1′-biphenyl]-3-yl)oxy)spiro[3.3]heptan-2-yl)-6-(2-hydroxy-2-methylpropoxy)pyrazolo[1,5-a]pyridine-3-carboxamide]
< 5 nM	CC(C)(O)COc1ccc2c(C(=O)NC3CC4(C3)CC(Oc3cc(-c5cccc(C#N)c5)ccc3C(N)=O)C4)cnn2c1 (centres unmarked) [Example 244, N-(6-((4-carbamoyl-3′-cyano-[1,1′-biphenyl]-3-yl)oxy)spiro[3.3]heptan-2-yl)-6-(2-hydroxy-2-methylpropoxy)pyrazolo[1,5-a]pyridine-3-carboxamide]
5 to 50 nM	COCc1cccc(-c2ccc(C(N)=O)c(OC3CC4(CC(NC(=O)c5cnn6cc(OCC(C)(C)O)ccc56)C4)C3)c2)c1 (centres unmarked) [Example 245, N-(6-((4-carbamoyl-3′-(methoxymethyl)-[1,1′-biphenyl]-3-yl)oxy)spiro[3.3]heptan-2-yl)-6-(2-hydroxy-2-methylpropoxy)pyrazolo[1,5-a]pyridine-3-carboxamide]
< 5 nM	CC(C)(O)COc1ccc2c(C(=O)NC3CC4(C3)CC(Oc3cc(-c5cccc(CO)c5)ccc3C(N)=O)C4)cnn2c1 (centres unmarked) [Example 247, N-(6-((4-carbamoyl-3′-(hydroxymethyl)-[1,1′-biphenyl]-3-yl)oxy)spiro[3.3]heptan-2-yl)-6-(2-hydroxy-2-methylpropoxy)pyrazolo[1,5-a]pyridine-3-carboxamide]
5 to 50 nM	CC(C)(O)COc1ccc2c(C(=O)NC3CC4(C3)CC(Oc3cc(-c5cccc(Cl)n5)ccc3C(N)=O)C4)cnn2c1 (centres unmarked) [Example 248]
5 to 50 nM	CC(C)(O)COc1ccc2c(C(=O)NC3CC4(C3)CC(Oc3cc(-c5cccc(CN)c5)ccc3C(N)=O)C4)cnn2c1 (centres unmarked) [Example 252, N-(6-((3′-(aminomethyl)-4-carbamoyl-[1,1′-biphenyl]-3-yl)oxy)spiro[3.3]heptan-2-yl)-6-(2-hydroxy-2-methylpropoxy)pyrazolo[1,5-a]pyridine-3-carboxamide]
5 to 50 nM	CC(C)(O)COc1ccc2c(C(=O)NC3CC4(C3)CC(Oc3cc(-c5cccnc5)ccc3C(N)=O)C4)cnn2c1 (centres unmarked) [Example 256, N-(6-(2-carbamoyl-5-(pyridin-3-yl)phenoxy)spiro[3.3]heptan-2-yl)-6-(2-hydroxy-2-methylpropoxy)pyrazolo[1,5-a]pyridine-3-carboxamide]
5 to 50 nM	CC(C)(O)COc1ccc2c(C(=O)NC3CC4(C3)CC(Oc3cc(-c5cccc(C(N)C(=O)O)c5)ccc3C(N)=O)C4)cnn2c1 (centres unmarked) [Example 257, 2-amino-2-(4′-carbamoyl-3′-((6-(6-(2-hydroxy-2-methylpropoxy)pyrazolo[1,5-a]pyridine-3-carboxamido)spiro[3.3]heptan-2-yl)oxy)-[1,1′-biphenyl]-3-yl)acetic Acid]
< 5 nM	CC(C)(O)COc1ccc2c(C(=O)NC3CC4(C3)CC(Oc3cc(-c5cccc(CCN)c5)ccc3C(N)=O)C4)cnn2c1 (centres unmarked) [Example 261, N-(6-((3′-(2-aminoethyl)-4-carbamoyl-[1,1′-biphenyl]-3-yl)oxy)spiro[3.3]heptan-2-yl)-6-(2-hydroxy-2-methylpropoxy)pyrazolo[1,5-a]pyridine-3-carboxamide]
